The values below come from PubChem BioAssay AID1259408 (Genetic Toxicology Data Bank (GENE-TOX), 2018).

The source made the active and inactive calls. The rule behind the calls is not given here.

This data set has as its system GENE-TOX genotoxicity assays, various organisms and cells. As to the kind of experiment: GENE-TOX mutagenicity studies. Conditions: for call: Assay Type: In vivo carcinogenicity studies.
[1] abbreviates: Species/Cell Type: Salmonella typhimurium (one or more of the five standard strains: TA98, TA100, TA1535, TA1537, and TA1538), Assay Type: Histidine reverse gene mutation, Ames assay, Assay Code: SAL+*, Activation: With metabolic activation, Evaluation Type: Evaluation A (Pre-1980).
[2] abbreviates: Species/Cell Type: Drosophila melanogaster, Assay Type: Sex-linked recessive lethal gene mutation, Assay Code: SRL+, Evaluation Type: Evaluation A (Pre-1980).
Where [3] appears, read: Species/Cell Type: Nonhuman, Assay Type: Sister-chromatid exchange (SCE) in vitro, Assay Code: SC2+, Evaluation Type: Evaluation B (Post-1980).
Setting [4] is: Species/Cell Type: Escherichia coli polA (W3119 vs P3478), Assay Type: Rec-assay, DNA effects (bacterial DNA repair), Assay Code: RE1T, Evaluation Type: Evaluation A (Pre-1980).
[5] abbreviates: Species/Cell Type: Fischer rat embryo (RLV/1706) cells, Assay Type: Cell transformation, viral enhanced, Assay Code: CTR+, Evaluation Type: Evaluation A (Pre-1980).
[6] abbreviates: Species/Cell Type: Human lymphocytes, Assay Type: Sister-chromatid exchange (SCE) in vitro, Assay Code: SCL+D, Dose Response: With dose response, Evaluation Type: Evaluation B (Post-1980).
Setting [7] is: Species/Cell Type: Human, Assay Type: Sister-chromatid exchange (SCE) in vitro, Assay Code: SC1+D, Dose Response: With dose response, Evaluation Type: Evaluation B (Post-1980).
[8] abbreviates: Species/Cell Type: Mouse (BALB/c-3T3) cells, Assay Type: Cell transformation, Assay Code: CTB-, Evaluation Type: Evaluation A (Pre-1980).
Where [9] appears, read: Species/Cell Type: Nonhuman, Assay Code: CCG+, Evaluation Type: Evaluation A (Pre-1980).
Where [10] appears, read: Species/Cell Type: Salmonella typhimurium (one or more of the five standard strains: TA98, TA100, TA1535, TA1537, and TA1538), Assay Type: Histidine reverse gene mutation, Ames assay, Assay Code: SAL+, Evaluation Type: Evaluation A (Pre-1980).

`O=NN1CCC(O)CC1`: the mutagenic call reads like this: (Species/Cell Type: Drosophila melanogaster, Assay Type: Aneuploidy, partial sex chromosome loss, chromosome aberrations, Assay Code: DAPT, Evaluation Type: Evaluation A (Pre-1980)) “no conclusion”; (Species/Cell Type: Drosophila melanogaster, Assay Type: Aneuploidy, whole sex chromosome loss, chromosome aberrations, Assay Code: DACT, Evaluation Type: Evaluation A (Pre-1980)) “no conclusion”; (Species/Cell Type: Drosophila melanogaster, Assay Type: Sex-linked recessive lethal gene mutation, Assay Code: SRLT, Evaluation Type: Evaluation A (Pre-1980)) “no conclusion”; under setting [1], “active; positive”.
Take `O=c1[nH]cc(Cl)c(=O)[nH]1`: the mutagenic call (Species/Cell Type: Mouse, Sex: Male, Assay Type: Specific locus test, gene mutation, Assay Code: SLTT, Evaluation Type: Evaluation A (Pre-1980)) is “no conclusion”.
`CC(C)C(=O)Nc1ccc([N+](=O)[O-])c(C(F)(F)F)c1`: the mutagenic call (Species/Cell Type: Rodents, Sex: Male, Assay Type: Dominant lethal test, Assay Code: DLT-, Evaluation Type: Evaluation A (Pre-1980)) is “inactive; negative”.
In the case of `CC[C@@]1(O)C[C@H](O[C@H]2C[C@H](N)[C@H](O)[C@H](C)O2)c2c(cc3c(c2O)C(=O)c2c(O)cccc2C3=O)[C@H]1C(=O)OC`, under setting [1], the mutagenic call was “active; positive”.
For `CN(Cc1ccccc1)N=O`, the mutagenic call is, setting by setting: (Species/Cell Type: Arabidopsis species, Assay Type: Gene mutation, Assay Code: ARM+D, Dose Response: With dose response, Evaluation Type: Evaluation A (Pre-1980)) “active; positive”; under setting [2], “active; positive”; under setting [3], “active; positive”; under setting [1], “active; positive”; (Species/Cell Type: Salmonella typhimurium, Assay Type: Forward and reverse gene mutation, host-mediated assay, Assay Code: HMA+, Evaluation Type: Evaluation A (Pre-1980)) “active; positive”.
As for `O=C(O)CNc1ccc(O)cc1`, where the note is “Species/Cell Type: Allium cepa, Assay Type: Chromosome aberrations, Assay Code: ALC+, Evaluation Type: Evaluation A (Pre-1980)”, the mutagenic call was “active; positive”.
Regarding `COP(=S)(Oc1cc(Cl)c(Br)cc1Cl)c1ccccc1` (stereo not given), the mutagenic call under setting [3] was “active; positive”.
On to `Cc1cc(O)cc(O)c1`, for which, under “Species/Cell Type: Allium cepa, Assay Type: Chromosome aberrations, Assay Code: ALC-, Evaluation Type: Evaluation A (Pre-1980)”, the mutagenic call is “inactive; negative”.
As to `CC/C(=C(/CC)c1ccc(O)cc1)c1ccc(O)cc1`, the mutagenic call runs as follows: under setting [4], “no conclusion”; under setting [5], “active; positive”; (Species/Cell Type: Human diploid fibroblasts, Assay Type: Unscheduled DNA synthesis (UDS) in vitro, DNA effects, Assay Code: UDHT, Evaluation Type: Evaluation A (Pre-1980)) “no conclusion”; under setting [6], “active; positive”; under setting [7], “active; positive”; (Species/Cell Type: Human, Sex: Male, Assay Type: Sperm morphology, Assay Code: SPHT, Evaluation Type: Evaluation A (Pre-1980)) “no conclusion”. Besides, the mutagenic call runs as follows: (Species/Cell Type: Mammalian polychromatic erythrocytes, Assay Type: Micronucleus test, chromosome aberrations, Assay Code: MNT+, Evaluation Type: Evaluation A (Pre-1980)) “active; positive”; under setting [8], “inactive; negative”; (Species/Cell Type: Mouse lymphoma (L5178Y) cells, Assay Type: Forward gene mutation at the thymidine kinase (TK) locus, chromosome aberrations, Assay Code: L51+, Evaluation Type: Evaluation A (Pre-1980)) “active; positive”; (Species/Cell Type: Mouse, Sex: Male, Assay Type: Sperm morphology, Assay Code: SPIT, Evaluation Type: Evaluation A (Pre-1980)) “no conclusion”; (Species/Cell Type: Neurospora crassa, Assay Type: Aneuploidy, chromosome aberrations, Assay Code: NEN-, Evaluation Type: Evaluation A (Pre-1980)) “inactive; negative”; under setting [3], “active; positive”. The mutagenic call reads like this: (Species/Cell Type: Nonhuman, Assay Type: Sister-chromatid exchange (SCE) in vitro, Assay Code: SC2-, Evaluation Type: Evaluation A (Pre-1980)) “inactive; negative”; (Species/Cell Type: Nonhuman, Assay Type: Sister-chromatid exchange (SCE) in vivo, Assay Code: SC3+, Evaluation Type: Evaluation B (Post-1980)) “active; positive”; (Species/Cell Type: Salmonella typhimurium (one or more of the five standard strains: TA98, TA100, TA1535, TA1537, and TA1538), Assay Type: Histidine reverse gene mutation, Ames assay, Assay Code: SAL-, Evaluation Type: Evaluation A (Pre-1980)) “inactive; negative”; (Species/Cell Type: Salmonella typhimurium, Assay Type: Forward and reverse gene mutation, body fluid assay, Assay Code: BFU-, Evaluation Type: Evaluation A (Pre-1980)) “inactive; negative”; (Species/Cell Type: Syrian hamster embryo (SHE) cells, Assay Type: Cell transformation, clonal assay, Assay Code: CTCT, Evaluation Type: Evaluation A (Pre-1980)) “no conclusion”; (Species/Cell Type: Tradescantia species, Assay Type: Gene mutation, Assay Code: TRM+D, Dose Response: With dose response, Evaluation Type: Evaluation A (Pre-1980)) “active; positive”. Moreover, the call under setting [9] was “active; positive”.
`N=C(N)SCCN`: the mutagenic call was “active; positive” (Species/Cell Type: Human lymphocytes, Assay Type: Sister-chromatid exchange (SCE) in vitro, Assay Code: SCL+, Evaluation Type: Evaluation B (Post-1980)); “no conclusion” (Species/Cell Type: Human lymphocytes, Assay Type: Sister-chromatid exchange (SCE) in vitro, Assay Code: SCLT, Evaluation Type: Evaluation B (Post-1980)); “active; positive” (Species/Cell Type: Human, Assay Type: Sister-chromatid exchange (SCE) in vitro, Assay Code: SC1+, Evaluation Type: Evaluation B (Post-1980)); “no conclusion” (Species/Cell Type: Human, Assay Type: Sister-chromatid exchange (SCE) in vitro, Assay Code: SC1T, Evaluation Type: Evaluation B (Post-1980)).
On to `Oc1ccc2ccc3c4ccccc4cc4ccc1c2c43`, for which the mutagenic call reads like this: (Species/Cell Type: Chinese hamster lung (V79) cells, Assay Type: Forward gene mutation at the HPRT or ouabain locus, Assay Code: V79+/-*, Activation: With metabolic activation, Evaluation Type: Evaluation A (Pre-1980)) “inactive; positive without activation, negative with activation”; (Species/Cell Type: Escherichia coli polA (W3110 vs P3478), Assay Type: Rec-assay, DNA effects (bacterial DNA repair), Assay Code: RE2+, Evaluation Type: Evaluation A (Pre-1980)) “active; positive”; under setting [4], “no conclusion”; (Species/Cell Type: Saccharomyces cerevisiae, Assay Type: Mitotic recombination or gene conversion, Assay Code: YEH-, Evaluation Type: Evaluation A (Pre-1980)) “inactive; negative”; under setting [10], “active; positive”; (Species/Cell Type: Salmonella typhimurium, Assay Type: Forward and reverse gene mutation, host-mediated assay, Assay Code: HMA-, Evaluation Type: Evaluation A (Pre-1980)) “inactive; negative”. In addition, the call (Species/Cell Type: Nonhuman, Assay Code: CCGT, Evaluation Type: Evaluation A (Pre-1980)) is reported as “no conclusion”.
Take `CCCCN(CC(C)=O)N=O`: under setting [1], the mutagenic call was “active; positive”.
In the case of `C#C[C@]1(O)CC[C@H]2[C@@H]3CCc4cc(O)ccc4[C@H]3CC[C@@]21C`, the mutagenic call reads like this: under setting [5], “active; positive”; under setting [8], “inactive; negative”; (Species/Cell Type: Syrian hamster embryo (SHE) cells, Assay Type: Cell transformation, clonal assay, Assay Code: CTC-, Evaluation Type: Evaluation A (Pre-1980)) “inactive; negative”. Also, the call under setting [9] was “active; positive”.
Take `O=Cc1ccco1`: the mutagenic call is “active; positive” under setting [6], “active; positive” under setting [7] and “active; positive” under setting [10].
`CC(=O)Nc1ccc(C(=O)CCl)cc1`: the call (Species/Cell Type: Nonhuman, Assay Code: CCG-, Evaluation Type: Evaluation A (Pre-1980)) was “inactive; negative”.
With `CC(CO)OS(C)(=O)=O` (stereo not given), for the setting “Species/Cell Type: Hordeum vulgare (barley), Assay Type: Chromosome aberrations, Assay Code: HOC+D, Dose Response: With dose response, Evaluation Type: Evaluation A (Pre-1980)”, the mutagenic call was “active; positive”.
Take `Cc1ccc2ccc3c4ccccc4cc4ccc1c2c43`: under setting [2], the mutagenic call is “active; positive”.
Regarding `CCC1(O)CC(OC2CC(N)C(OC3CC(O)C(OC4CCC(=O)C(C)O4)C(C)O3)C(C)O2)c2c(cc3c(c2O)C(=O)c2c(O)cccc2C3=O)C1C(=O)OC` (stereo not given), the mutagenic call under setting [1] was “active; positive”.
With `CS(=O)(=O)OCCNP1(=O)OCCCN1CCCl` (stereo not given), where the note is “Species/Cell Type: Mammalian polychromatic erythrocytes, Assay Type: Micronucleus test, chromosome aberrations, Assay Code: MNT+U, Dose Response: Unconfirmed positive response, Evaluation Type: Evaluation A (Pre-1980)”, the mutagenic call is “active; positive”.
In the case of `Cc1ccc(C)cc1`, the mutagenic call (Species/Cell Type: Mammalian polychromatic erythrocytes, Assay Type: Micronucleus test, chromosome aberrations, Assay Code: MNTT, Evaluation Type: Evaluation B (Post-1980)) was “no conclusion”.
As for `COc1cccc(C2CO2)c1` (stereo not given), the mutagenic call (Species/Cell Type: Escherichia coli WP2 UVRA, Assay Type: Tryptophan reverse gene mutation, Assay Code: WPU-, Evaluation Type: Evaluation A (Pre-1980)) was “inactive; negative”.
